Tests used:
Human PKK = molecular target: T1, Human PKK (Homo sapiens, UniProt P03952); assay: Inhibition of PKK using an endpoint assay (human PKK); type: biochemical; settings: fluorogenic substrate H-Pro-Phe-Arg-AMC, 1 h room temperature, method names human or rat PKK, table does not say which
T1 construct: purchased Enzyme Research Laboratories
Summary of the method: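 Human PKK inhibition measured in 100 mM Tris, 150 mM NaCl, pH 7.8, 0.1% BSA, 0.05% Tween20, 1% DMSO. Endpoint format: reaction stopped with PPACK II at 1 μM final, fluorescence read at 355 nm excitation/460 nm emission.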

[1] = molecular target: T2, PKK in kaolin activated human platelet poor plasma (Homo sapiens, UniProt P03952); assay: Inhibition of PKK in kaolin activated human PPP; type: biochemical; settings: 25-750 μg/mL kaolin, global fit, text b200 calls the values IC90;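 note: readout is the rate of fluorogenic substrate cleavage in rfu per min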
T2 construct: Platelet poor plasma (PPP) obtained from human wholeblood; from tissue
Experimental: Platelet poor plasma (PPP) obtained from human wholeblood, anticoagulated with Na-Citrate, is incubated with various concentrations of the test compound together with either 25, 75, 250, or 750 μg/mL kaolin in assay buffer for 20 min at 37° C. such that for each kaolin dose used a concentration response is obtained for the test compound.

T2 sequence (P03952 391-638 limits assumed): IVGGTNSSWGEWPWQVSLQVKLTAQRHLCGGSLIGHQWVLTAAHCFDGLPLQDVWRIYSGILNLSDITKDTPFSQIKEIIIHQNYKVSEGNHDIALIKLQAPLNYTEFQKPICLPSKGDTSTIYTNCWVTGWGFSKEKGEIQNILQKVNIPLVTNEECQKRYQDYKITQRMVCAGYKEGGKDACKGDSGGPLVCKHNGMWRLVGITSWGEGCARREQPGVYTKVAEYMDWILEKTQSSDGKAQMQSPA
T2 sequence (P03952 20-390 limits assumed): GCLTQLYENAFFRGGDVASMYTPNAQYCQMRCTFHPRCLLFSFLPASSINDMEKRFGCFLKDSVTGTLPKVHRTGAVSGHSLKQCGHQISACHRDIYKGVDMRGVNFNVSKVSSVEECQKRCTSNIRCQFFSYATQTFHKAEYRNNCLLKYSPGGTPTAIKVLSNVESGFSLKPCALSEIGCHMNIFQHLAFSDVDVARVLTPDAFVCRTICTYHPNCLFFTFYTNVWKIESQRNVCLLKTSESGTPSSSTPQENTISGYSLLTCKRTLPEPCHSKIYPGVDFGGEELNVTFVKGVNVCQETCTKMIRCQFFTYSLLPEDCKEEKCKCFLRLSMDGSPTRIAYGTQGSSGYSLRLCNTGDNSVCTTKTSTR
T1 sequence (P03952 20-390 limits assumed): as above
T1 sequence (P03952 391-638 limits assumed): as the sequence (P03952 391-638 limits assumed) above

Row | IC50 (Human PKK) [nM] | IC50 [1] [nM] | SMILES
1 | 1 | 373 | Cn1cnc2c1CC[C@H]2NC(=O)c1cc(Cc2ccc(N3CC4C(C3)C4(F)F)nc2Cl)no1 (stereo partly drawn) [Example 150, 3-[(2-Chloro-6-{6,6-difluoro-3-azabicyclo[3.1.0]hexan-3-yl}pyridin-3-yl)methyl]-N-[(4R)-1-methyl-1H,4H,5H,6H-cyclopenta-[d]imidazol-4-yl]-1,2-oxazole-5-carboxamide]
2 | 2.2 | 967 | CCc1nc(N2CC3C(C2)C3(F)F)ccc1Cc1cc(C(=O)N[C@@H]2CCc3c2ncn3C)n(C(C)C)n1 (stereo partly drawn) [Example 160, 3-[(6-{6,6-Difluoro-3-azabicyclo[3.1.0]hexan-3-yl}-2-ethylpyridin-3-yl)methyl]-N-[(4R)-1-methyl-1H,4H,5H,6H-cyclopenta[d]imidazol-4-yl]-1-(propan-2-yl)-1H-pyrazole-5-carboxamide]
3 | 2.3 | 621 | Cn1cnc2c1CC[C@H]2NC(=O)c1cnn(Cc2ccc(N3CC4C(C3)C4(F)F)cc2F)c1 (stereo partly drawn) [Example 213, 1-[(4-{6,6-difluoro-3-azabicyclo[3.1.0]hexan-3-yl}-2-fluorophenyl)methyl]-N-[(4R)-1-methyl-1H,4H,5H,6H-cyclopenta[d]imidazol-4-yl]-1H-pyrazole-4-carboxamide]
4 | 3.6 | 1140 | Cn1cnc2c1CC[C@H]2NC(=O)c1cc(Cc2ccc(N3CC4CC4C3)nc2)no1 (stereo partly drawn) [Example 151, 3-[(6-{3-Azabicyclo[3.1.0]hexan-3-yl}pyridin-3-yl)methyl]-N-[(4R)-1-methyl-1H,4H,5H,6H-cyclopenta[d]imidazol-4-yl]-1,2-oxazole-5-carboxamide]
5 | 0.8 | 132 | Cn1cnc2c1CC[C@H]2NC(=O)c1cnn(Cc2ccc(N3CC4CC4C3)nc2CCO)c1 (stereo partly drawn) [Example 85, 1-[(6-{3-Azabicyclo[3.1.0]hexan-3-yl}-2-(2-hydroxyethyl)-pyridin-3-yl)methyl]-N-[(4R)-1-methyl-1H,4H,5H,6H-cyclopenta[d]imidazol-4-yl]-1H-pyrazole-4-carboxamide]
6 | 0.5 | 157 | Cn1cnc2c1CC[C@H]2NC(=O)c1cnn(Cc2ccc(N3CC4CC4C3)c(C#N)c2Cl)c1 (stereo partly drawn) [Example 202, 1-[(4-{3-azabicyclo[3.1.0]hexan-3-yl}-2-chloro-3-cyanophenyl)methyl]-N-[(4R)-1-methyl-1H,4H,5H,6H-cyclopenta[d]imidazol-4-yl]-1H-pyrazole-4-carboxamide]
7 | 1.1 | 274 | CCc1nc(N2CC3CC3C2)ccc1Cc1cc(C(=O)N[C@@H]2CCc3c2ncn3C)on1 (stereo partly drawn) [Example 146, 3-[(6-{3-Azabicyclo[3.1.0]hexan-3-yl}-2-ethylpyridin-3-yl)methyl]-N-[(4R)-1-methyl-1H,4H,5H,6H-cyclopenta[d]imidazol-4-yl]-1,2-oxazole-5-carboxamide]
8 | 1.4 | 151 | Cn1cnc2c1CC[C@H]2NC(=O)c1cn(Cc2ccc(N3CC4C(C3)C4(F)F)nc2F)cn1 (stereo partly drawn) [Example 7, 1-[(6-{6,6-Difluoro-3-azabicyclo[3.1.0]hexan-3-yl}-2-fluoropyridin-3-yl)methyl]-N-[(4R)-1-methyl-1H,4H,5H,6H-cyclopenta[d]imidazol-4-yl]-1H-imidazole-4-carboxamide]
9 | 0.7 | 209 | Cn1cnc2c1CC[C@H]2NC(=O)c1cnn(Cc2ccc(N3CC4CC4C3)nc2C(C)(C)O)c1 (stereo partly drawn) [Example 84, 1-[(6-{3-Azabicyclo[3.1.0]hexan-3-yl}-2-(2-hydroxypropan-2-yl)pyridin-3-yl)methyl]-N-[(4R)-1-methyl-1H,4H,5H,6H-cyclopenta[d]imidazol-4-yl]-1H-pyrazole-4-carboxamide]
10 | 3.3 | 177 | Cn1cnc2c1CC[C@H]2NC(=O)c1cn(Cc2ccc(N3CC4(CC4)C3)nc2CO)cn1 [Example 87, 1-[(6-{5-Azaspiro[2.3]hexan-5-yl}-2-(hydroxymethyl)-pyridin-3-yl)methyl]-N-[(4R)-1-methyl-1H,4H,5H,6H-cyclopenta[d]imidazol-4-yl]-1H-imidazole-4-carboxamide]
11 | 2 | 818 | Cn1cnc2c1CC[C@H]2NC(=O)c1cn(Cc2ccc(N3CC4CC4C3)nc2F)nn1 (stereo partly drawn) [Example 17, 1-[(6-{3-Azabicyclo[3.1.0]hexan-3-yl}-2-fluoropyridin-3-yl)methyl]-N-[(4R)-1-methyl-1H,4H,5H,6H-cyclo-penta[d]imidazol-4-yl]-1H-1,2,3-triazole-4-carboxamide]
12 | 1.2 | > 10000 | Cc1nc(N2CC3CC3C2)ccc1Cn1cc(C(=O)N[C@@H]2CCc3c2ncn3C)c(CCO)n1 (stereo partly drawn) [Example 216, 1-[(6-{3-Azabicyclo[3.1.0]hexan-3-yl}-2-methylpyridin-3-yl)methyl]-3-(2-hydroxyethyl)-N-[(4R)-1-methyl-1H,4H,5H,6H-cyclopenta[d]imidazol-4-yl]-1H-pyrazole-4-carboxamide]
13 | 1 | 162 | Cn1cnc2c1CC[C@H]2NC(=O)c1cnn(Cc2ccc(N3CC4C(C3)C4(F)F)nc2C(F)F)c1 (stereo partly drawn) [Example 46, 1-[(6-{6,6-Difluoro-3-azabicyclo[3.1.0]hexan-3-yl}-2-(difluoromethyl)pyridin-3-yl)methyl]-N-[(4R)-1-methyl-1H,4H,5H,6H-cyclopenta-[d]imidazol-4-yl]-1H-pyrazole-4-carboxamide]
14 | 0.6 | 130 | Cn1cnc2c1CC[C@H]2NC(=O)c1cn(Cc2ccc(N3CC4CC4C3)c(C#N)c2F)cn1 (stereo partly drawn) [Example 201, 1-[(4-{3-azabicyclo[3.1.0]hexan-3-yl}-3-cyano-2-fluorophenyl)methyl]-N-[(4R)-1-methyl-1H,4H,5H,6H-cyclopenta[d]imidazol-4-yl]-1H-imidazole-4-carboxamide]
15 | 0.9 | 1190 | Cn1cnc2c1CC[C@H]2NC(=O)c1cn(Cc2ccc(N3CC4CC4C3)nc2Br)nn1 (stereo partly drawn) [Example 34, 1-[(6-{3-Azabicyclo[3.1.0]hexan-3-yl}-2-bromopyridin-3-yl)methyl]-N-[(4R)-1-methyl-1H,4H,5H,6H-cyclopenta-[d]imidazol-4-yl]-1H-1,2,3-triazole-4-carboxamide]
16 | 4.9 | 343 | Cn1cnc2c1CC[C@H]2NC(=O)c1cn(Cc2ccc(N3CC4(CC4)C3)nc2)nn1 [Example 26, 1-[(6-{5-Azaspiro[2.3]hexan-5-yl}pyridin-3-yl)-methyl]-N-[(4R)-1-methyl-1H,4H,5H,6H-cyclopenta[d]imidazol-4-yl]-1H-1,2,3-triazole-4-carboxamide]
17 | 1.4 | 985 | Cn1cnc2c1CC[C@H]2NC(=O)c1cc(Cc2ccc(N3CC4CC4C3)nc2Cl)no1 (stereo partly drawn) [Example 148, 3-[(6-{3-Azabicyclo[3.1.0]hexan-3-yl}-2-chloropyridin-3-yl)methyl]-N-[(4R)-1-methyl-1H,4H,5H,6H-cyclopenta[d]imidazol-4-yl]-1,2-oxazole-5-carboxamide]
18 | 0.6 | 195 | Cn1cnc2c1CC[C@H]2NC(=O)c1cnn(Cc2ccc(N3CC4CC4C3)nc2C2(C#N)CC2)c1 (stereo partly drawn) [Example 42, 1-[(6-{3-Azabicyclo[3.1.0]hexan-3-yl}-2-(1-cyanocyclopro-pyl)-pyridin-3-yl)methyl]-N-[(4R)-1-methyl-1H,4H,5H,6H-cyclopenta[d]imidazol-4-yl]-1H-pyrazole-4-carboxamide]

Source: patent US12479827B2, “Heteroaromatic carboxamide derivatives as plasma kallikrein inhibitors” (Boehringer Ingelheim International GmbH, priority 2020, dated 2025)
